Tested on: Mouse macrophages
Assay: Evaluation of Reactive Nitrogen Species Inhibiting Ability (nitric oxide production in LPS-treated mouse macrophages, Griess reagent)
Format: cell-based
Settings: under the treatment concentration of the 3-hydroxypropionic acid; LPS 1 μg/ml
Protocol: Mouse macrophages were divided into 1×10^6 cells in a 6-well plate and cultured for 24 hours, then treated with LPS (Lipopolysaccharide, concentration 1 μg/ml) solution, and treated with the 3-hydroxypropionic acid aqueous solution according to Preparation Example 1 at four concentrations (3HP concentration: 0 wt. %, 0.0125 wt. %, 0.025 wt. %, 0.05 wt. %), and then cultured again for 24 hours. Only the medium was then separated and centrifuged for 10 minutes to collect only the supernatant. The supernatant was mixed with Griess reagent (Sigma-Aldrich) reagent in a 1:1 ratio and reacted at room temperature, and then the absorbance (OD, wavelength 540 nm) was measured using a microplate reader. The measured value was substituted into the regression equation obtained from the standard curve prepared by reacting Griess reagent (Sigma-Aldrich) and NaNO2 in a 1:1 ratio to calculate the amount of nitric oxide (NO) produced. Here, the case in which neither the LPS solution nor the 3HP aqueous solution was treated was performed as a negative control group.

O=C(O)CCO [3HP, 3-Hydroxypropionic acid]
effect of inhibiting the production of reactive nitrogen species: the effect of inhibiting the production of reactive nitrogen species was exhibited

— patent US20260294853A1, “COSMETIC COMPOSITION HAVING ANTI-INFLAMMATORY ACTIVITY” (LG CHEM, LTD., priority 2023, published 2026)
